Assays:
[1] = test system: GPR55-silenced HeLa cells; test: LPI-induced ERK1/2 and p38 phosphorylation in shGPR55-HeLa clones (Western blot); type: cell-based, human
Method: For stable interference of GPR55, HeLa cells were plated at 1.5 × 10^5 cells/well in six-well plates in growth medium without antibiotics, and 24 h later, the cells were transfected with 1.7 µg/well OmicsLink short hairpin (sh)RNA expression clone CSHCTR001-CU6 (shCTRL) or clone HSH022476-3-CU6 (shGPR55) from GeneCopoeia (Rockville, MD, USA), using Lipofectamine 2000, according the manufacturer instructions. Forty-eight hours after transfection, HeLa clones stably expressing shRNAs were selected in growth medium containing 0.3 µg/mL puromycin. The efficiency of interference was monitored by real-time PCR using the primers listed in the Additional file 1: Table S1. HPRT1 was followed as a housekeeping gene.
Twenty-four hours after transfection (HEK293T, HeLa cells or clones) or 72 h after interference (RAW264.7 cells), the cells were washed twice with HBSS^++, serum deprived (HEK293T cells for 4 h in DMEM; HeLa cells and clones for 2 h in MEM plus 2 mM glutamine and 25 mM HEPES; RAW264.7 cells for 2 h in DMEM), washed once again with HBSS^++, incubated in stimulation buffer (HBSS^++ with 10 mM HEPES, 0.4% faf-BSA for HEK293T cells; HBSS^++ with 25 mM HEPES and 0.01% faf-BSA for HeLa cells, clones, and RAW264.7 cells) in the absence or presence of stimuli, at 37 °C for the indicated times. Incubations were terminated by washing the cells twice with cold HBSS^++, and the analyses were performed as reported below.
Cell lysates were obtained by scraping the cells into phospho-lysis buffer: 50 mM Tris–HCl, pH 7.5, 100 mM NaCl, 5 mM EDTA, 1% Triton X-100, 50 mM NaF, 40 mM β-glycerophosphate, 200 µM sodium orthovanadate, plus protease and phosphatase inhibitors (Roche). […]
Protein lysates were subjected to SDS-PAGE, and after electrophoresis, the proteins were transferred to a nitrocellulose membrane (PerkinElmer Life Science, Boston, MA, USA). […] The membranes were then washed twice with T-TBS and once with TBS for 5 min, and the signals were detected by ECL (Amersham Pharmacia, Piscataway, NJ, USA). […]

[2] = test system: Gpr55 mRNA in RAW264.7 cells; test: Modulation of Gpr55 mRNA levels by receptor ligands in RANKL-treated RAW264.7 cells; type: cell-based, murine; conditions: 72 h; 0.5 μM ML-191, 0.5 μM CBD, 1 μM soybean LPI; versus RANKL alone
Method: Total RNA was extracted using RNeasy isolation kits, cDNAs were obtained using QuantiTect Reverse Transcription kits, and real-time PCRs were performed with QuantiTect SYBR Green PCR kits (all from Qiagen, Hilden, Germany), according to the manufacturer instructions. The primers used for the real-time PCRs and their annealing temperatures are listed in the Additional file 1: Table S1. Human hypoxanthine phosphoribosyltransferase 1 (HPRT1) or murine β2-microglobulin were followed as housekeeping genes. The real-time PCR programme consisted of an initial 15 min at 95 °C, and then 45 cycles as follows: 94 °C for 15 s, annealing temperature of each primer for 30 s, and 72 °C for 30 s. The real-time PCR machine used was a LightCycler 480 Instrument II (Roche, Indianapolis, IN, USA).
For the osteoclastogenesis in-vitro assay, RAW264.7 cells were plated in differentiation medium (α-MEM with 10% heat-inactivated FBS, 2 mM L-glutamine, 100 U/mL penicillin, and 100 ug/mL streptomycin) at a density of 5 × 10^3 cells/well in 24-well plates on coverslips for morphological analysis, or at 2 × 10^4 cells/well in six-well plates for RNA extraction. Twenty-four hours later and every 48 h, the medium was replaced and the cells were treated with 15–30 ng/mL RANKL with DMSO and/or PBS as carriers, or with GPR55 antagonists/ agonists (0.5 µM ML-191, 30 µM O1918, 0.5 µM CBD, 0.5 μM CID16020046 1 µM soybean LPI, 1 μM ML-184), or with the peptides (150 nM peptide-P1; or the irrelevant peptide, Irr_P). Twenty-four hours after the last addition, the cells were fixed with 4% paraformaldehyde for morphological analyses or harvested for RNA extraction (see above).

Substance: lysophosphatidylinositol [LPI]
- LPI response of empty vector (pcDNA3.1) transfected clones ([1]; 10 µM 18:0 LPI): did not respond to LPI addition
- ERK1/2 and p38 activation ([1]; 10 µM soybean LPI, or 1 µM ionomycin 5 min): did not show any ERK1/2 and p38 activation
- further enhancement of RANKL-stimulated Gpr55 mRNA levels [2]: 0.5 -fold

Source: article PMC8073907, “Peptide targeting of lysophosphatidylinositol-sensing GPR55 for osteoclastogenesis tuning” (Cell Communication and Signaling : CCS, 2021)
